pKi: −log10 of the molar value.

T1 sequence (P37288 whole entry): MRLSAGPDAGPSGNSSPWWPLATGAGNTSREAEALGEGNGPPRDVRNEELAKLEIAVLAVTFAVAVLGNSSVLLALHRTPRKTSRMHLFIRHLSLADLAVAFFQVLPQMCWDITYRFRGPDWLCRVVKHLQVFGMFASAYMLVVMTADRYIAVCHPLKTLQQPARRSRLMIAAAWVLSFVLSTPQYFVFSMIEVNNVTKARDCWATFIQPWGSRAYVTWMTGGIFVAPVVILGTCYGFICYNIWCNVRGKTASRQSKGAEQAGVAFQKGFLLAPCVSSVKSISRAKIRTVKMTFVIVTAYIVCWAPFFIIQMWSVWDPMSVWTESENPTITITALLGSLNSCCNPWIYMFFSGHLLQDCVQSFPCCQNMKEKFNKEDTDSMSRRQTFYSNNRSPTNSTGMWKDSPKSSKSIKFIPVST

This test has as its target T1, human V1A receptor (Homo sapiens, UniProt P37288).
T1 construct: expressed in transfected cells
Put plainly: V1A filter binding assay ([3H]-AVP binding to CHO-hV1A membranes). The following applies: screen 1.0, [3H]-AVP displacement. The procedure:
1.0 V1A Filter Binding Assay
Receptor binding assays were performed on cellular membranes prepared from CHO cells stably expressing the human V1A receptor, (CHO-hV1A). The CHO-hV1A cell line was kindly provided under a licensing agreement by Marc Thibonnier, Dept. of Medicine, Case Western Reserve University School of Medicine, Cleveland, Ohio. CHO-hV1A cells were routinely maintained at 37° C. in humidified atmosphere with 5% CO2 in DMEM/Hams F12 nutrient mix supplemented with 10% fetal bovine serum, 2 mM L-glutamine, 15 mM HEPES and 400 μg/ml G418. For bulk production of cell pellets, adherent CHO-hV1A cells were grown to confluency of 90-100% in 850 cm^2 roller bottles containing a medium of DMEM/Hams F12 Nutrient Mix supplemented with 10% fetal bovine serum, 2 mM L-glutamine and 15 mM HEPES. Confluent CHO-hV1A cells were washed with phosphate-buffered saline (PBS), harvested into ice cold PBS and centrifuged at 1,000 rpm. Cell pellets were stored at −80° C. until use. Cell pellets were thawed on ice and homogenised in membrane preparation buffer consisting of 50 mM Tris-HCl, pH 7.4, 5 mM MgCl2 and supplemented with a protease inhibitor cocktail, (Roche). The cell homogenate was centrifuged at 1000 rpm, 10 min, 4° C. and the supernatant was removed and stored on ice. The remaining pellet was homogenised and centrifuged as before. The supernatants were pooled and centrifuged at 25,000×g for 30 min at 4° C. The pellet was resuspended in freezing buffer consisting of 50 mM Tris-HCl, pH 7.4, 5 mM MgCl2 and 20% glycerol and stored in small aliquots at −80° C. until use. Protein concentration was determined using Bradford reagent and BSA as a standard.
Protein linearity followed by saturation binding studies were performed on each new batch of membrane. Membrane concentration was chosen that gave specific binding on the linear portion of the curve. Saturation binding studies were then performed using various concentrations of [^3H]-arginine vasopressin, [^3H]-AVP (0.05 nM-100 nM) and the Kd and Bmax determined.
Compounds were tested for their effects on [^3H]-AVP binding to CHO-hV1A membranes, (^3H-AVP; specific activity 65.5 Ci/mmol; NEN Life Sciences). Compounds were solubilised in dimethylsulfoxide (DMSO) and diluted to working concentration of 10% DMSO with assay buffer containing 50 mM Tris-HCL pH 7.4, 5 mM MgCl2 and 0.05% BSA. […] The binding reaction was initiated by the addition of 200 μl membrane and the plates were gently shaken for 60 min at room temperature. The reaction was terminated by rapid filtration using a Filtermate Cell Harvester (Packard Instruments) through a 96-well GF/B UniFilter Plate which had been presoaked in 0.5% polyethyleneimine to prevent peptide sticking. The filters were washed three times with 1 ml ice cold wash buffer containing 50 mM Tris-HCL pH 7.4 and 5 mM MgCl2. The plates were dried and 50 μl Microscint-0 (Packard instruments) was added to each well. The plates were sealed and counted on a TopCount Microplate Scintillation Counter (Packard Instruments). Non-specific binding (NSB) was determined using 1 μM unlabelled d(CH2)5Tyr(Me)AVP ([β-mercapto-β,β-cyclopentamethylenepropionyl,0-Me-Tyr^2,Arg^8]-vasopressin) (βMCPVP), (Sigma). The radioligand binding data was analysed using a four parameter logistic equation with the min forced to 0%. The slope was free fitted and fell between −0.75 and −1.25 for valid curves. Specific binding was calculated by subtracting the mean NSB cpm from the mean Total cpm. For test compounds the amount of ligand bound to the receptor was expressed as % bound=(sample cpm−mean NSB cpm)/specific binding cpm×100. The % bound was plotted against the concentration of test compound and a sigmoidal curve was fitted. The inhibitory dissociation constant (Ki) was calculated using the Cheng-Prusoff equation: Ki=IC50/(1+[L]/Kd) where [L] is the concentration of ligand present in the well and Kd is the dissociation constant of the radioligand obtained from Scatchard plot analysis. […]
With `CN1Cc2cc(Cl)ccc2-n2c(nnc2C2CCN(C(=O)CC3CC3)CC2)C1` [Example 18, 1-[4-(8-Chloro-5-methyl-5,6-dihydro-4H-2,3,5,10b-tetraaza-benzo[e]azulen-1-yl)-piperidin-1-yl]-2-cyclopropyl-ethanone], the pKi is 7.21.

For the compound `CN1Cc2cc(Cl)ccc2-n2c(nnc2C2CCN(C(=O)c3ccc4cc[nH]c4c3)CC2)C1` [Example 67, [4-(8-Chloro-5-methyl-5,6-dihydro-4H-2,3,5,10b-tetraaza-benzo[e]azulen-1-yl)-piperidin-1-yl]-(1H-indol-6-yl)-methanone], the pKi was 7.80.

Compound `Cc1ccccc1CC(=O)N1CCC(c2nnc3n2-c2ccc(Cl)cc2CN(C)C3)CC1` [Example 2, 1-[4-(8-Chloro-5-methyl-5,6-dihydro-4H-2,3,5,10b-tetraaza-benzo[e]azulen-1-yl)-piperidin-1-yl]-2-o-tolyl-ethanone] showed a pKi of 7.46.

On to `CN1Cc2cc(Cl)ccc2-n2c(nnc2C2CCN(C(=O)C3(C)CCCCC3)CC2)C1` [Example 9, [4-(8-Chloro-5-methyl-5,6-dihydro-4H-2,3,5,10b-tetraaza-benzo[e]azulen-1-yl)-piperidin-1-yl]-(1-methyl-cyclohexyl)-methanone], for which the pKi was 7.22. This pKi is 0.24 log units lower than that of the compound before.

`CN1Cc2cc(Cl)ccc2-n2c(nnc2C2CCN(C(=O)c3c[nH]c4ccccc34)CC2)C1` [Example 1, [4-(8-Chloro-5-methyl-5,6-dihydro-4H-2,3,5,10b-tetraaza-benzo[e]azulen-1-yl)-piperidin-1-yl]-(1H-indol-3-yl)-methanone] had a pKi of 7.13.

`CN1Cc2cc(Cl)ccc2-n2c(nnc2C2CCN(C(=O)c3cc4ccccc4[nH]3)CC2)C1` [Example 64, [4-(8-Chloro-5-methyl-5,6-dihydro-4H-2,3,5,10b-tetraaza-benzo[e]azulen-1-yl)-piperidin-1-yl]-(1H-indol-2-yl)-methanone] gave a pKi of 7.46.

The record behind these values is patent publication US20070167430A1, “Compounds useful in therapy” (priority 2004, published 2007).
